How the values were obtained:
inflammatory screens = assay: Anti-inflammatory activity, general statements (oral activity, inflammatory screens); assay type: in vivo
Method: Such inflammatory agents typically include oxazolone, and the like. The reverse passive Arthus test offers another measure of the compound's utility in preventing an inflammatory response (Chang et al. Eur. J. Phar. 69:155-164 (1981)). Test compounds are typically administered intraperitoneally or orally. For intraperitoneal administration, the test compound can be given in dimethyl sulfoxide or in 0.5% methylcellulose 30 minutes prior to administration of the irritant. For oral administration, the test compound can be compounded into tablet or capsule form as well as dissolved in, for example, water or ethanol and swallowed prior to application of the irritant. Results can be expressed as the percent decrease in swelling in the compound-treated animals as compared to control animals that receive only the irritant.

[1] = tested on: oxazolone-induced ear edema; assay: Inhibition of ear edema caused by oxazolone; assay type: in vivo, mouse (CF-1); details: given orally, mouse, 24 h; dose not given
Method: CF-1 mice, 25-30 g body weight, six animals per group were used. The mice were sensitized to the irritant two weeks prior to the test by dribbling 100 μL of a 3% solution of oxazolone in acetone onto the scrotum of the animal. Test compounds were administered orally at doses of 100 mg/kg and 300 mg/kg for 1 hour prior to oxazolone, intraperitoneally as follows: The test compound was dissolved in dimethyl sulfoxide and doses of 10 mg/kg, 30 mg/kg and 100 mg/kg were injected 15 minutes prior to irritant. The irritant, 3% oxazolone in acetone, was added to the surface of the ear, 5 μl added to the upper surface and 5 μl added to the lower surface. After twenty four hours, the thickness of the ear was measured to 0.01 mm by a micrometer with loose drag, positioned at the lateral-most edge of the mid-point of the pinna. Data were calculated as the inhibition of increased ear thickness compared to control animals' receiving only the irritant. In general, % inhibition of greater than 20% is statistically significant (p<0.05 or less, Student's t-test for unpaired data).

[2] = tested on: reverse passive Arthus reaction; assay: Reverse Passive Arthus Reaction (RPA); assay type: in vivo, rat (male SD); details: ip, rat
Method: Male SD rats weighing between 200 and 300 g were used. Test compounds were dissolved in dimethyl sulfoxide and 1 ml/kg of this stock solution (100 mg/ml), on serial dilutions were injected intraperitoneally one hour before administration of the antigen or given orally. The animals were anesthetized inhalationally with isoflurane and then injected through the penile vein with 1 ml of a solution of 2.5 mg of Evan's blue dye and 5.0 mg of human serum albumin in 1 ml of saline. This treatment was followed immediately by intracutaneous injections of 0.075 ml of anti-human albumin diluted to contain 4.38 mg/ml of antibody at 2 sites opposite the midline back. Anesthesia was terminated and after three hours, the animals were sacrificed. The skin was removed and the blue stained areas cut out. The skin patches were soaked overnight in stoppered tubes containing 2 ml of 1N potassium hydroxide at 5° C. Then 9 ml of a mixture of five parts of a 1.2N phosphoric acid and thirteen parts of acetone were added to the tubes. The tube contents were agitated and centrifuged, and the absorbance measured at 620 nm. The data were calculated as inhibition of blueing by test compound compared to control animals receiving only antigen and antibody.

plasma fibrinogen = assay: Adjuvant arthritis, plasma fibrinogen inhibition in rats; assay type: in vivo, rat (male Sprague Dawley); details: po, rat; for ED (maximal inhibition) at 100 mg/kg: 0.3 to 100 mg/kg, read-out: AA (p.o.) Dose yielding max inhibition (100 mg/kg)

`O=C(Nc1ccc(C(=O)O)cc1)OC1c2ccccc2-c2ccccc21` [N-(9H-fluorenyl-9-oxycarbonyl)-4-aminobenzoic acid] was tested. Which “activity when taken orally” value (inflammatory screens) did it give?
The value was “exhibit activity even when taken orally”.

What does the source list for `O=C(Nc1ccc(C(=O)O)cc1)OCCC1c2ccccc2-c2ccccc21` [Example 7, N-[9H-(Fluorenyl-9-ethoxycarbonyl)]amino-4-benzoic acid]?
activity when taken orally (inflammatory screens): exhibit activity even when taken orally; inhibition of increased ear thickness (oxazolone) [1]: 50%; ED50 [2]: 70 mg/kg; ED (maximal inhibition) at 100 mg/kg (plasma fibrinogen): 30 mg/kg; ED (maximal inhibition) (plasma fibrinogen; given orally, read-out: dose achieving maximum inhibition of plasma fibrinogen): 3 mg/kg

For `O=C(Nc1ccc(C(=O)NS(=O)(=O)c2ccccc2)cc1)OCCC1c2ccccc2-c2ccccc21` [N-{[9H-(fluorenyl-9-ethoxycarbonyl)]-4-amino-benzoyl}-benzenesulfonamide], which “activity when taken orally” value (inflammatory screens) is on record?
The value was “exhibit activity even when taken orally”.

How did the “activity when taken orally” value (inflammatory screens) turn out when `O=C(Nc1ccc(C(=O)O)cc1)OCCC1c2cc(Cl)ccc2-c2ccc(Cl)cc21` [Example 9] was run?
Its value is “exhibit activity even when taken orally”.

What about the ED50 [2] of the same molecule?
Its ED50 is 34 mg/kg.

And the ED (maximal inhibition) at 100 mg/kg (plasma fibrinogen)?
Its ED (maximal inhibition) at 100 mg/kg is 3 mg/kg.

For `Cc1ccc2c(c1)C(CCOC(=O)Nc1ccc(C(=O)O)cc1)c1cc(C)ccc1-2` [Example 8, N-[9H-(2,7-Dimethylfluorenyl-9-ethoxycarbonyl)]amino-4-benzoic acid], which “activity when taken orally” value (inflammatory screens) is on record?
The value was “exhibit activity even when taken orally”.

What about the ED50 [2] of the same molecule?
The ED50 was 100 mg/kg.

What about the ED (maximal inhibition) at 100 mg/kg (plasma fibrinogen) of the same molecule?
Its ED (maximal inhibition) at 100 mg/kg is 100 mg/kg.
